The source of these data is patent US20100075957A1, “AMINODIHYDROTHIAZINE DERIVATIVES SUBSTITUTED WITH A CYCLIC GROUP” (SHIONOGI & CO., LTD., priority 2007, published 2010).

Molecules are shown by their SMILES.

One test deals with T1, Recombinant human BACE-1 (Homo sapiens, UniProt P56817).
T1 construct: purchased R&D Systems
T1 sequence (P56817 46-501): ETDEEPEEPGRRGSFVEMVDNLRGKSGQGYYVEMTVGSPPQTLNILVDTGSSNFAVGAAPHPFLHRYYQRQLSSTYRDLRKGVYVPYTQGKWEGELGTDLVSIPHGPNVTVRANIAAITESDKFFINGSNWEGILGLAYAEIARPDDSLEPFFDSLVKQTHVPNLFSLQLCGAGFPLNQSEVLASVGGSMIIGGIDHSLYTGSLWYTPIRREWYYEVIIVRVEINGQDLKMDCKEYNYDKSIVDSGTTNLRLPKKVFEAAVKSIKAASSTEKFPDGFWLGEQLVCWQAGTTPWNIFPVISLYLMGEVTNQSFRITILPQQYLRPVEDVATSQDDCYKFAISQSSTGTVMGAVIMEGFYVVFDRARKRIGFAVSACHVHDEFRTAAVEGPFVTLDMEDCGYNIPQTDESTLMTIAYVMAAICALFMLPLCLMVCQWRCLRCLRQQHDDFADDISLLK
The test can be described thus: Assay of β-secretase-inhibiting activity.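 Further: substrate is a peptide carrying biotin and europium cryptate, after the enzyme reaction, Streptavidin-XL665 is added and incubated 1 h at 30 °C before fluorescence reading.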 Format: biochemical. As to conditions: Recombinant human BACE-1 7.4 nM, substrate peptide 18 nM, pH 5.0, 30° C., 3 hours; Table 140; read-out: IC50.
On to `CC1(C)C[C@@](C)(c2cc(NC(=O)c3coc(Cl)n3)ccc2F)N=C(N)S1` [Compound 645], for which the IC50 stood at 200 nM.

The test is the same for the next values; noted with them: Recombinant human BACE-1 7.4 nM, substrate peptide 18 nM, pH 5.0, 30° C., 3 hours; Table 141; read-out: IC50.
With `Cc1cn2cc(C(=O)Nc3ccc(F)c([C@]4(C)CCSC(N)=N4)c3)ncc2n1` [Compound 652], the IC50 was 60 nM.

Take `CC1(C)C[C@@](C)(c2cc(NC(=O)c3ncccc3F)ccn2)N=C(N)S1` [Compound 655]: the IC50 was 10 nM.

Turning to `C[C@]1(c2cc(NC(=O)c3ncccc3F)ccc2F)N=C(N)SCC1(F)F` [Compound 660], the IC50 came out at 110 nM.

With `Cc1cnc(C(=O)Nc2ccc(F)c([C@@]3(C)N=C(N)SCC3(F)F)c2)cn1` [Compound 662], the IC50 amounted to 170 nM.

In the case of `Cc1nc(C(=O)Nc2ccc(F)c([C@@]3(C)N=C(N)SCC3(F)F)c2)co1` [Compound 664], the IC50 amounted to 20 nM.

Consider `CCCCc1ccc(C(=O)Nc2ccc(F)c([C@@]3(C)N=C(N)SCC3(F)F)c2)nc1` [Compound 665], for which the IC50 amounted to 870 nM.

Take `COc1nc(C(=O)Nc2ccc(F)c([C@]3(C)CCSC(N)=N3)c2)co1` [Compound 667]: the IC50 was 20 nM.

As for `C[C@@]1(c2cc(Nc3ncc4ccccn34)ccc2F)CCSC(N)=N1` [Compound 668], the IC50 came to 510 nM.

Turning to `C[C@@]1(c2cc(NC(=O)c3coc(C(F)(F)F)n3)ccc2F)CCSC(N)=N1` [Compound 669], the IC50 was 10 nM.

On to `Cc1cnc(C(=O)Nc2ccc(F)c([C@@]3(C)N=C(N)SCC34CC4)c2)cn1` [Compound 674], for which the IC50 is 10 nM.

Take `COc1ncc(NC(=O)c2cnc(C)cn2)cc1[C@]1(C)CCSC(N)=N1` [Compound 680]: the IC50 was found to be 50 nM.

In the case of `COc1cnc(C(=O)Nc2ccc(F)c([C@@]3(C)N=C(N)SCC3=O)c2)cn1` [Compound 689], the IC50 turned out to be 40 nM.

As to `C[C@@]1(c2cc(NC(=O)c3cnc(NCC(F)(F)F)cn3)ccc2F)CCSC(N)=N1` [Compound 702], the IC50 stood at 160 nM.

Staying with this test, now noted: Recombinant human BACE-1 7.4 nM, substrate peptide 18 nM, pH 5.0, 30° C., 3 hours; time-resolved fluorescence ratio 665/620; read-out: IC50 values (50% inhibitory concentration against the enzymatic activity).
On to `Cc1cnc(C(=O)Nc2ccc(F)c([C@]3(C)CC(C)(C)SC(N)=N3)c2)cn1` [Compound 606], for which the IC50 was ≤ 1000 nM.

Consider `Cc1nc(C(=O)Nc2ccc(F)c([C@]3(C)CC(C)(C)SC(N)=N3)c2)co1` [Compound 609], for which the IC50 is ≤ 1000 nM.

For `Cc1nc(C(=O)Nc2ccnc([C@]3(C)CCSC(N)=N3)c2)co1` [Compound 612], the IC50 was ≤ 1000 nM.

In the case of `C[C@@]1(c2cc(NC(=O)c3ncccc3F)ccn2)CCSC(N)=N1` [Compound 613], the IC50 was ≤ 1000 nM.

On to `COc1cnc(C(=O)Nc2ccnc([C@]3(C)CC(C)(C)SC(N)=N3)c2)cn1` [Compound 637], for which the IC50 was ≤ 1000 nM.

In the case of `CC1(C)C[C@@](C)(c2cc(NC(=O)c3ncc(C(F)(F)F)cc3Cl)ccc2F)N=C(N)S1` [Compound 644], the IC50 is ≤ 1000 nM.

For `C[C@@]1(c2cncc(NC(=O)c3ncc(C(F)(F)F)cc3F)c2)CCSC(N)=N1` [Compound 646], the IC50 is ≤ 1000 nM.

In the case of `COc1cnc(C(=O)Nc2ccc(F)c([C@@]3(C)N=C(N)SCC3(C)C)c2)cn1` [Compound 647], the IC50 is ≤ 1000 nM.

With `Cc1cnc(C(=O)Nc2ccc(F)c([C@@]3(C)N=C(N)SCC3(C)C)c2)cn1` [Compound 649], the IC50 was ≤ 1000 nM.

As to `C[C@@]1(c2cc(NC(=O)c3cn4cc(C(F)(F)F)nc4cn3)ccc2F)CCSC(N)=N1` [Compound 651], the IC50 was ≤ 1000 nM.

`Cc1cnc(C(=O)Nc2ccnc([C@]3(C)CC(C)(C)SC(N)=N3)c2)cn1` [Compound 653]: the IC50 is ≤ 1000 nM.

Take `CC1(C)C[C@@](C)(c2cc(NC(=O)c3ncc(C(F)(F)F)cc3Cl)ccn2)N=C(N)S1` [Compound 656]: the IC50 is ≤ 1000 nM.

In the case of `C#CCOc1cnc(C(=O)Nc2ccnc([C@]3(C)CC(C)(C)SC(N)=N3)c2)cn1` [Compound 657], the IC50 was ≤ 1000 nM.

For the compound `CC1(C)C[C@@](C)(c2cc(NC(=O)c3cnc(OCCF)cn3)ccn2)N=C(N)S1` [Compound 658], the IC50 is ≤ 1000 nM.

As to `C#CCOc1cnc(C(=O)Nc2ccnc([C@]3(C)CCSC(N)=N3)c2)cn1` [Compound 659], the IC50 was ≤ 1000 nM.

For `CC1(C)CSC(N)=N[C@]1(C)c1cc(NC(=O)c2ncccc2F)ccc1F` [Compound 661], the IC50 was ≤ 1000 nM.

As for `C[C@@]1(c2cc(NC(=O)c3cnc4ccccc4n3)ccc2F)CCSC(N)=N1` [Compound 666], the IC50 was ≤ 1000 nM.

As to `CCc1nc(C(=O)Nc2ccc(F)c([C@]3(C)CCSC(N)=N3)c2)co1` [Compound 670], the IC50 was ≤ 1000 nM.

With `C[C@@]1(c2cc(NC(=O)c3cnc(OCC4CCO4)cn3)ccc2F)CCSC(N)=N1` (stereo partly shown) [Compound 672], the IC50 is ≤ 1000 nM.

Take `COc1cnc(C(=O)Nc2ccc(F)c([C@@]3(C)N=C(N)SCC3(F)F)c2)cn1` [Compound 673]: the IC50 is ≤ 1000 nM.

For `COc1cnc(C(=O)Nc2ccc(F)c([C@@]3(C)N=C(N)SCC34CC4)c2)cn1` [Compound 675], the IC50 is ≤ 1000 nM.

Turning to `C#CCOc1cnc(C(=O)Nc2ccc(F)c([C@@]3(C)N=C(N)SCC34CC4)c2)cn1` [Compound 676], the IC50 was ≤ 1000 nM.

For `C[C@@]1(c2cc(NC(=O)c3ncc(Cl)cc3Cl)ccn2)CCSC(N)=N1` [Compound 677], the IC50 is ≤ 1000 nM.

Turning to `C[C@@]1(c2cc(NC(=O)c3ncc(C(F)(F)F)cc3Cl)ccn2)CCSC(N)=N1` [Compound 678], the IC50 was ≤ 1000 nM.

As to `COc1cnc(C(=O)Nc2ccnc([C@]3(C)CCSC(N)=N3)c2)c(C)c1` [Compound 679], the IC50 is ≤ 1000 nM.

On to `COc1cnc(C(=O)Nc2ccc(F)c([C@@]3(C)N=C(N)SC[C@@H]3OCc3ccccc3)c2)cn1` [Compound 683], for which the IC50 is ≤ 1000 nM.

Regarding `COc1cnc(C(=O)Nc2ccc(F)c([C@@]3(C)N=C(N)SC[C@H]3OCc3ccccc3)c2)cn1` [Compound 684], the IC50 was ≤ 1000 nM.

On to `COc1cnc(C(=O)Nc2ccnc([C@]3(C)CC(C)(C)SC(N)=N3)c2)c(C)c1` [Compound 685], for which the IC50 was ≤ 1000 nM.

For `CC1(C)C[C@@](C)(c2cc(NC(=O)c3ncc(Cl)cc3Cl)ccn2)N=C(N)S1` [Compound 686], the IC50 is ≤ 1000 nM.

Take `C[C@]1(c2cc(NC(=O)c3ncc(Cl)cc3Cl)ccc2F)N=C(N)SCC1=O` [Compound 687]: the IC50 was ≤ 1000 nM.

For `COc1cnc(C(=O)Nc2ccnc([C@]3(C)CC(C)(C)SC(N)=N3)c2)c(N)n1` [Compound 688], the IC50 was ≤ 1000 nM.

Consider `C[C@@]1(c2cc(NC(=O)c3ncc(Cl)cc3Cl)ccc2F)CCSC(N)=N1` [Compound 690], for which the IC50 was ≤ 1000 nM.

Regarding `COc1cnc(C(=O)Nc2ccnc([C@]3(C)CCSC(N)=N3)c2)c(N)n1` [Compound 691], the IC50 is ≤ 1000 nM.

Regarding `C#CCOc1cnc(C(=O)Nc2ccc(F)c([C@]3(C)CC(C)(C)SC(N)=N3)c2)cn1` [Compound 692], the IC50 was ≤ 1000 nM.

Regarding `C#CCOc1cnc(C(=O)Nc2cccc([C@]3(C)CC(C)(C)SC(N)=N3)c2)cn1` [Compound 693], the IC50 is ≤ 1000 nM.

Regarding `COc1cnc(C(=O)Nc2cccc([C@]3(C)CC(C)(C)SC(N)=N3)c2)cn1` [Compound 694], the IC50 was ≤ 1000 nM.

Regarding `CC#CCOc1cnc(C(=O)Nc2cccc([C@]3(C)CC(C)(C)SC(N)=N3)c2)cn1` [Compound 695], the IC50 was ≤ 1000 nM.

Take `CC1(C)C[C@@](C)(c2cc(NC(=O)c3ccc(C#N)cn3)ccn2)N=C(N)S1` [Compound 696]: the IC50 is ≤ 1000 nM.

In the case of `C[C@@]1(c2cc(NC(=O)c3cn4cc(C#N)nc4cn3)ccc2F)CCSC(N)=N1` [Compound 697], the IC50 was ≤ 1000 nM.

Take `C#Cc1cn2cc(C(=O)Nc3ccc(F)c([C@]4(C)CCSC(N)=N4)c3)ncc2n1` [Compound 698]: the IC50 is ≤ 1000 nM.

For `C[C@@]1(c2cc(NC(=O)c3cn4cc(C#N)nc4cn3)ccn2)CCSC(N)=N1` [Compound 699], the IC50 was ≤ 1000 nM.

On to `C#Cc1cn2cc(C(=O)Nc3ccnc([C@]4(C)CCSC(N)=N4)c3)ncc2n1` [Compound 700], for which the IC50 was ≤ 1000 nM.

For `C[C@@]1(c2cc(NC(=O)c3cnc(NCC#N)cn3)ccc2F)CCSC(N)=N1` [Compound 701], the IC50 was ≤ 1000 nM.

In the case of `C[C@@]1(c2cc(NC(=O)c3cnc(NCC(F)(F)F)cn3)ccc2F)CCSC(N)=N1` [Compound 702], the IC50 is ≤ 1000 nM.
